According to PubChem BioAssay AID256 (DTP/NCI, 2004):
Several values for one entry are separate records, joined by “and”; a condition that tells them apart may be missing. Equal entries are not always repeated. Inconclusive results and toxic doses are left out. How the source made its calls: active means survival T/C of 150% or more; inactive means T/C below 125% in these data.

Test system: CD2F1 mice, L1210 leukemia ip, survival T/C
Assay: NCI In Vivo Anticancer Drug Screen. Data for tumor model L1210 Leukemia (intraperitoneal) in CD2F1 (CDF1) mice
Conditions: higher = longer survival
Outline: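 Each value reflects a quotient of treated over vehicle control outcomes in mice with a transplanted tumor.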

Measured: T/C

Cc1[nH]c(=O)[nH]c(=O)c1N(CCF)CCCl
inactive: endpoint: mean survival time, dose: 1.8 mg/kg/injection, schedule: Q01DX009 (ip), vehicle: saline 98 % of control | endpoint: mean survival time, dose: 3.0 mg/kg/injection, schedule: Q01DX009 (ip), vehicle: saline 102 % of control | endpoint: mean survival time, dose: 5.0 mg/kg/injection, schedule: Q01DX009 (ip), vehicle: saline 104 % of control | endpoint: mean survival time, dose: 8.0 mg/kg/injection, schedule: Q01DX001 (ip), vehicle: acid diluted with saline 95 % of control and 102 % of control | endpoint: mean survival time, dose: 8.0 mg/kg/injection, schedule: Q01DX001 (ip), vehicle: saline 98 % of control | endpoint: mean survival time, dose: 8.4 mg/kg/injection, schedule: Q01DX009 (ip), vehicle: saline 106 % of control | endpoint: mean survival time, dose: 8.4 mg/kg/injection, schedule: Q04DX003 (ip), vehicle: saline 108 % of control | endpoint: mean survival time, dose: 14.0 mg/kg/injection, schedule: Q01DX009 (ip), vehicle: saline 113 % of control | endpoint: mean survival time, dose: 14.0 mg/kg/injection, schedule: Q04DX003 (ip), vehicle: saline 105 % of control | endpoint: mean survival time, dose: 16.0 mg/kg/injection, schedule: Q01DX001 (ip), vehicle: acid diluted with saline 97 % of control and 100 % of control | endpoint: mean survival time, dose: 16.0 mg/kg/injection, schedule: Q01DX001 (ip), vehicle: saline 94 % of control and 100 % of control | endpoint: mean survival time, dose: 23.0 mg/kg/injection, schedule: Q01DX001 (ip), vehicle: saline 117 % of control | endpoint: mean survival time, dose: 23.0 mg/kg/injection, schedule: Q01DX009 (ip), vehicle: saline 107 % of control | endpoint: mean survival time, dose: 23.0 mg/kg/injection, schedule: Q04DX003 (ip), vehicle: saline 114 % of control | endpoint: mean survival time, dose: 32.0 mg/kg/injection, schedule: Q01DX001 (ip), vehicle: acid diluted with saline 96 % of control and 102 % of control | endpoint: mean survival time, dose: 32.0 mg/kg/injection, schedule: Q01DX001 (ip), vehicle: saline 105 % of control and 109 % of control | endpoint: mean survival time, dose: 39.0 mg/kg/injection, schedule: Q01DX001 (ip), vehicle: saline 117 % of control | endpoint: mean survival time, dose: 64.0 mg/kg/injection, schedule: Q01DX001 (ip), vehicle: acid diluted with saline 107 % of control and 110 % of control | endpoint: mean survival time, dose: 64.0 mg/kg/injection, schedule: Q01DX001 (ip), vehicle: saline 115 % of control and 120 % of control | endpoint: mean survival time, dose: 65.0 mg/kg/injection, schedule: Q01DX001 (ip), vehicle: saline 123 % of control | endpoint: median survival time, dose: 0.5 mg/kg/injection, schedule: Q03HX024 (ip), vehicle: acid diluted with saline 107 % of control | endpoint: median survival time, dose: 1.0 mg/kg/injection, schedule: Q03HX016 (ip), vehicle: acid diluted with saline 98 % of control | endpoint: median survival time, dose: 1.0 mg/kg/injection, schedule: Q03HX024 (ip), vehicle: acid diluted with saline 105 % of control | endpoint: median survival time, dose: 2.0 mg/kg/injection, schedule: Q01DX009 (ip), vehicle: acid diluted with saline 107 % of control | endpoint: median survival time, dose: 2.0 mg/kg/injection, schedule: Q03HX008 (ip), vehicle: acid diluted with saline 96 % of control | endpoint: median survival time, dose: 2.0 mg/kg/injection, schedule: Q03HX016 (ip), vehicle: acid diluted with saline 100 % of control | endpoint: median survival time, dose: 2.0 mg/kg/injection, schedule: Q03HX024 (ip), vehicle: acid diluted with saline 108 % of control | endpoint: median survival time, dose: 2.0 mg/kg/injection, schedule: Q03HX024 (oral), vehicle: acid diluted with saline 100 % of control | endpoint: median survival time, dose: 4.0 mg/kg/injection, schedule: Q01DX009 (ip), vehicle: acid diluted with saline 117 % of control | endpoint: median survival time, dose: 4.0 mg/kg/injection, schedule: Q01DX009 (sc), vehicle: acid diluted with saline 104 % of control | endpoint: median survival time, dose: 4.0 mg/kg/injection, schedule: Q03HX008 (ip), vehicle: acid diluted with saline 96 % of control | endpoint: median survival time, dose: 4.0 mg/kg/injection, schedule: Q03HX016 (ip), vehicle: acid diluted with saline 111 % of control | endpoint: median survival time, dose: 4.0 mg/kg/injection, schedule: Q03HX024 (ip), vehicle: acid diluted with saline 105 % of control | endpoint: median survival time, dose: 4.0 mg/kg/injection, schedule: Q03HX024 (oral), vehicle: acid diluted with saline 100 % of control | endpoint: median survival time, dose: 4.0 mg/kg/injection, schedule: Q04DX003 (ip), vehicle: acid diluted with saline 96 % of control | endpoint: median survival time, dose: 8.0 mg/kg/injection, schedule: Q01DX009 (ip), vehicle: acid diluted with saline 108 % of control | endpoint: median survival time, dose: 8.0 mg/kg/injection, schedule: Q01DX009 (oral), vehicle: acid diluted with saline 100 % of control | endpoint: median survival time, dose: 8.0 mg/kg/injection, schedule: Q01DX009 (sc), vehicle: acid diluted with saline 100 % of control | endpoint: median survival time, dose: 8.0 mg/kg/injection, schedule: Q03HX008 (ip), vehicle: acid diluted with saline 100 % of control | endpoint: median survival time, dose: 8.0 mg/kg/injection, schedule: Q03HX008 (oral), vehicle: acid diluted with saline 106 % of control | endpoint: median survival time, dose: 8.0 mg/kg/injection, schedule: Q03HX016 (ip), vehicle: acid diluted with saline 97 % of control | endpoint: median survival time, dose: 8.0 mg/kg/injection, schedule: Q03HX016 (oral), vehicle: acid diluted with saline 100 % of control | endpoint: median survival time, dose: 8.0 mg/kg/injection, schedule: Q03HX024 (ip), vehicle: acid diluted with saline 108 % of control | endpoint: median survival time, dose: 8.0 mg/kg/injection, schedule: Q03HX024 (oral), vehicle: acid diluted with saline 100 % of control | endpoint: median survival time, dose: 8.0 mg/kg/injection, schedule: Q04DX003 (ip), vehicle: acid diluted with saline 100 % of control | endpoint: median survival time, dose: 8.0 mg/kg/injection, schedule: Q08DX002 (ip), vehicle: acid diluted with saline 100 % of control | endpoint: median survival time, dose: 16.0 mg/kg/injection, schedule: Q01DX001 (ip), vehicle: acid diluted with saline 98 % of control | endpoint: median survival time, dose: 16.0 mg/kg/injection, schedule: Q01DX001 (sc), vehicle: acid diluted with saline 98 % of control | endpoint: median survival time, dose: 16.0 mg/kg/injection, schedule: Q01DX009 (ip), vehicle: acid diluted with saline 120 % of control | endpoint: median survival time, dose: 16.0 mg/kg/injection, schedule: Q01DX009 (oral), vehicle: acid diluted with saline 106 % of control | endpoint: median survival time, dose: 16.0 mg/kg/injection, schedule: Q01DX009 (sc), vehicle: acid diluted with saline 104 % of control | endpoint: median survival time, dose: 16.0 mg/kg/injection, schedule: Q03HX008 (ip), vehicle: acid diluted with saline 96 % of control | endpoint: median survival time, dose: 16.0 mg/kg/injection, schedule: Q03HX008 (oral), vehicle: acid diluted with saline 112 % of control | endpoint: median survival time, dose: 16.0 mg/kg/injection, schedule: Q03HX016 (ip), vehicle: acid diluted with saline 102 % of control | endpoint: median survival time, dose: 16.0 mg/kg/injection, schedule: Q03HX016 (oral), vehicle: acid diluted with saline 112 % of control | endpoint: median survival time, dose: 16.0 mg/kg/injection, schedule: Q03HX024 (oral), vehicle: acid diluted with saline 112 % of control | endpoint: median survival time, dose: 16.0 mg/kg/injection, schedule: Q04DX003 (ip), vehicle: acid diluted with saline 108 % of control | endpoint: median survival time, dose: 16.0 mg/kg/injection, schedule: Q04DX003 (oral), vehicle: acid diluted with saline 106 % of control | endpoint: median survival time, dose: 16.0 mg/kg/injection, schedule: Q08DX002 (ip), vehicle: acid diluted with saline 105 % of control | endpoint: median survival time, dose: 32.0 mg/kg/injection, schedule: Q01DX001 (ip), vehicle: acid diluted with saline 98 % of control | endpoint: median survival time, dose: 32.0 mg/kg/injection, schedule: Q01DX001 (sc), vehicle: acid diluted with saline 100 % of control | endpoint: median survival time, dose: 32.0 mg/kg/injection, schedule: Q01DX009 (oral), vehicle: acid diluted with saline 112 % of control | endpoint: median survival time, dose: 32.0 mg/kg/injection, schedule: Q03HX008 (ip), vehicle: acid diluted with saline 104 % of control | endpoint: median survival time, dose: 32.0 mg/kg/injection, schedule: Q04DX003 (ip), vehicle: acid diluted with saline 108 % of control | endpoint: median survival time, dose: 32.0 mg/kg/injection, schedule: Q04DX003 (oral), vehicle: acid diluted with saline 112 % of control | endpoint: median survival time, dose: 32.0 mg/kg/injection, schedule: Q08DX002 (ip), vehicle: acid diluted with saline 100 % of control | endpoint: median survival time, dose: 64.0 mg/kg/injection, schedule: Q01DX001 (ip), vehicle: acid diluted with saline 98 % of control | endpoint: median survival time, dose: 64.0 mg/kg/injection, schedule: Q01DX001 (oral), vehicle: acid diluted with saline 112 % of control | endpoint: median survival time, dose: 64.0 mg/kg/injection, schedule: Q01DX001 (sc), vehicle: acid diluted with saline 100 % of control | endpoint: median survival time, dose: 64.0 mg/kg/injection, schedule: Q01DX009 (oral), vehicle: acid diluted with saline 112 % of control | endpoint: median survival time, dose: 64.0 mg/kg/injection, schedule: Q04DX003 (ip), vehicle: acid diluted with saline 90 % of control | endpoint: median survival time, dose: 64.0 mg/kg/injection, schedule: Q04DX003 (oral), vehicle: acid diluted with saline 112 % of control | endpoint: median survival time, dose: 64.0 mg/kg/injection, schedule: Q08DX002 (ip), vehicle: acid diluted with saline 98 % of control | endpoint: median survival time, dose: 64.0 mg/kg/injection, schedule: Q08DX002 (oral), vehicle: acid diluted with saline 112 % of control | endpoint: median survival time, dose: 128.0 mg/kg/injection, schedule: Q01DX001 (oral), vehicle: acid diluted with saline 100 % of control | endpoint: median survival time, dose: 128.0 mg/kg/injection, schedule: Q01DX001 (sc), vehicle: acid diluted with saline 100 % of control | endpoint: median survival time, dose: 128.0 mg/kg/injection, schedule: Q04DX003 (oral), vehicle: acid diluted with saline 112 % of control | endpoint: median survival time, dose: 128.0 mg/kg/injection, schedule: Q08DX002 (oral), vehicle: acid diluted with saline 106 % of control | endpoint: median survival time, dose: 256.0 mg/kg/injection, schedule: Q01DX001 (oral), vehicle: acid diluted with saline 100 % of control | endpoint: median survival time, dose: 256.0 mg/kg/injection, schedule: Q01DX001 (sc), vehicle: acid diluted with saline 105 % of control | endpoint: median survival time, dose: 256.0 mg/kg/injection, schedule: Q04DX003 (oral), vehicle: acid diluted with saline 112 % of control | endpoint: median survival time, dose: 256.0 mg/kg/injection, schedule: Q08DX002 (oral), vehicle: acid diluted with saline 100 % of control | endpoint: median survival time, dose: 512.0 mg/kg/injection, schedule: Q01DX001 (oral), vehicle: acid diluted with saline 112 % of control
